{GalNAc3} = trishexylamino-C6 triantennary GalNAc conjugate; e = 2'-O-(2-methoxyethyl) (MOE); d = 2'-deoxy (DNA)
Experiments:
Assay type in all cases: in vitro ADME
[1] = test system: T1, OATP1B3; experiment: OATP1B3 substrate uptake study in MDCK cells; settings: 10 μM ASO
T1 construct: expressed in transfected cells; host or cells: MDCK-II
Description: (§1) A 96-well cell culture plate containing a monolayer of MDCK-II cells grown on a permeable support and a corresponding receiver tray was used. The basolateral compartment of the culture plate and wells were washed with warm HBSS three times, with wells of the culture plate serving as the apical compartment. The wash was aspirated by adding 150 μL of 37°C HBSS to both compartments. Plates were incubated at 37°C with orbital shaking at 60 rpm for 15 min for OAT1, OAT3, OCT1, OCT2, OATP1B1, and OATP1B3 (±5 min). The pre-incubation buffer from both compartments was aspirated and 150 μL of the following was added to the basal compartment. For the probe substrate transport assay, HBSS in each well contained one of following probe substrates (positive control for transport), OCT1, 2 μM [^3H]-MPP^+; OCT2, 10 μM [^14C]-metformin; OAT1, 2 μM [^3H]-p-aminohippurate; OAT3, 10 μM [^3H]-p-aminohippurate; OATP1B1, 2 μM [^3H]-estradiol-17 β-D-glucuronide; and OATP1B3, 2 μM [^3H]-cholecystokinin octapeptide (CCK-8). […] Inhibition studies contained HBSS in each well, the probe substrate, and 100 μM of each test article, whereas substrate studies contained HBSS in each well and 10 μM of each test article. […] Samples containing probe substrate were added to 200 μL of scintillation fluid and counted on a 1450 Microbeta (PerkinElmer), whereas samples containing the test article were kept frozen. Test article concentrations, including control samples, were evaluated by an LC-MS method.
(§2) Signal to noise for probe substrates was calculated by dividing the uptake of the probe substrate in transporter-expressing cells by the uptake of probe substrate in control cells not expressing the transporter of interest. Percent inhibition was calculated by dividing the net-transporter-mediated substrate uptake in the presence of the test article or the reference inhibitor by the net-transporter-mediated substrate uptake in the absence of the inhibitor according to the equation: %inhibition=100−(100×(transporter-mediateduptake)withinhibitor/(transporter-mediateduptake)withoutinhibitor).

[2] = test system: T2, OCT1; experiment: OCT1 substrate uptake study in MDCK cells; settings: 10 μM ASO
T2 construct: expressed in transfected cells; host or cells: MDCK-II
Description: as §1, §2

[3] = test system: T3, BSEP; experiment: BSEP substrate study in Sf9 membrane vesicles; settings: 10 μM ASO, ATP vs AMP
T3 construct: purchased Life Technologies; host or cells: Sf9 cells (membrane vesicles)
Description: The test system included a 96-well flat bottom plate containing a suspension of vesicles and a 96-well glass fiber filtration plate. Transport experiments were initiated with the addition of Mg-ATP (for ATP-dependent BSEP uptake) or AMP (non-ATP-dependent uptake) to appropriate wells. Preparation of the flat-bottom plates included incubation with blocking buffer for 60 min at 37°C with orbital shaking at 120 rpm. After 60 min, the blocking buffer was completely removed and assay uptake buffer solutions were added. For BSEP inhibition studies, solutions contained 1 μM [^3H]-taurocholic acid as a substrate and either assay vehicle, test article (at 100 μM), or reference inhibitor (300 μM rifampicin). For BSEP substrate studies, solutions contained either 1 μM [^3H]-taurocholic acid or 10 μM test article. Vesicles were added to assay plates and incubated at 37°C with orbital shaking at 120 rpm for 15 min. To initiate the assay, either Mg-ATP or AMP was added to test wells at a final concentration of 5 mM. Plates were incubated at 37°C with orbital shaking at 120 rpm for 15 min. A glass fiber filtration plate was incubated with blocking buffer for 2 min. Vacuum was then applied to remove the blocking buffer, and ice-cold wash buffer was added to the filtration plate. Vesicular transport was quenched by adding ice-cold wash buffer. Assay samples were then mixed as diluted in wash buffer and 175 μL was transferred into the 96-well glass fiber filtration plate to separate vesicles. […] These samples were counted using a 1450 Microbeta (Perkin-Elmer). […] The test article was quantitated by LC-MS. […]
Signal to noise for the BSEP probe substrate was calculated by dividing the uptake of the probe substrate in BSEP-expressing vesicles in the presence of ATP by the uptake of the BSEP substrate in the vesicles in the presence of AMP. Percent inhibition in the presence of the test article or the reference inhibitors was calculated as: %inhibition=100−(100×(ATP−dependent,transportor−mediatedaccumulation)withinhibitor/(ATP−dependent,transportor−mediatedaccumulation)withoutinhibitor).

[4] = test system: T4, OAT1; experiment: OAT1 substrate uptake study in MDCK cells; settings: 10 μM ASO
T4 construct: expressed in transfected cells; host or cells: MDCK-II
Description: as §1, §2

ISIS 304801: 20-mer (5-10-5) 2′-MOE gapmer PS backbone antisense inhibitor of apoC-III, sequence AGCTTCTTGTCCAGCTTTAT (sugars from the 5' end e5 d10 e5, all phosphorothioate, methylation of C not given here)
< 2 fold: OATP1B3-mediated uptake relative to corresponding controls [1] | OCT1-mediated uptake relative to corresponding controls [2] | BSEP-mediated uptake relative to corresponding controls [3] | OAT1-mediated uptake relative to corresponding controls [4]

ISIS 420915: 20-mer 2′-MOE gapmer PS backbone antisense inhibitor of transthyretin, sequence TCTTGGTTACATGAAATCCC (all phosphorothioate, sugars by position and methylation of C not given here; 2'-MOE gapmer)
< 2 fold: OATP1B3-mediated uptake relative to corresponding controls [1] | OCT1-mediated uptake relative to corresponding controls [2] | BSEP-mediated uptake relative to corresponding controls [3] | OAT1-mediated uptake relative to corresponding controls [4]

ISIS 681257: 20-mer 2′-MOE gapmer PS/PO mixed backbone ASO conjugated to 5′-trishexylamino GalNAc3, targets Lp(a), sequence TGCTCCGTTGGTGCTTGTTC (5' {GalNAc3}, sugars by position and backbone not given here; 2'-MOE gapmer with mixed PS/PO backbone)
< 2 fold: OATP1B3-mediated uptake relative to corresponding controls [1] | OCT1-mediated uptake relative to corresponding controls [2] | BSEP-mediated uptake relative to corresponding controls [3] | OAT1-mediated uptake relative to corresponding controls [4]

Reference: PMC5602538, “Assessment of the Drug Interaction Potential of Unconjugated and GalNAc3-Conjugated 2′-MOE-ASOs” (Molecular Therapy. Nucleic Acids, 2017)
